Test results: article PMC11788587, “Validating Low‐Dose Iohexol as a Marker for Glomerular Filtration Rate by In Vitro and In Vivo Studies” (Clinical and Translational Science, 2025)
Read-outs that look alike come from different tables or passages of the source.

Legend:
[1] = Clinical trial in healthy volunteers, population pharmacokinetic analysis; assay type: in vivo, human;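 also: population pharmacokinetic parameters fitted to plasma and urine data, interindividual variability modelled exponentially, inter-occasion variability tied additively, sensitivity analysis compares alternative models omitting data from one subject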
Method: After establishing a reasonable structural model, the impact of dose‐related effects was assessed as a categorical covariate on PK parameters through forward and backward selection processes. Model improvement was evaluated using the change in the objective function value (ΔOFV), with significance levels of 0.05 (ΔOFV ≤ −3.84) and 0.01 (ΔOFV ≤ −6.63). The stability and performance of the final model were evaluated graphically and statistically, using goodness‐of‐fit plots, nonparametric bootstrap analysis [32], and the visual predictive check (VPC) technique [33], as described earlier [28].
Interindividual variability was estimated for CLR, V1, V2, and V3 using an exponential model. Inter‐occasion variability for CLR, V1, and Q2 was linked to inter‐individual variability through an additive model. The residual variability in plasma and urine data was best described by proportional error models.
To evaluate its impact on the final parameter estimates, we used two approaches: (i) conducting a sensitivity analysis by comparing parameter estimates across three models—the final model, a model excluding early post-dose plasma samples from the subject, and a model excluding all data from this period for the subject.

[2] = set-up: method as in PMID 32989831, PMID 30449032; settings: cited from earlier work
[3] = Model 1: excluding samples within 45 minutes after the test dose for the subject with delayed absorption
[4] = Model 2: excluding all data from the subject with delayed absorption when receiving the test dose
[5] = final model, entire dataset, n=12
[6] = final model, nonparametric bootstrap
[7] = one subject, test dose period with suspected paravenous administration, model with absorption phase

- Effect of dose level (categorical covariate) on PK parameters ([1]; 259 mg vs 3235 mg): did not differ significantly
- Inter-individual variability CLR estimate ([1]; Model 1): 14.4 CV%
- Inter-individual variability V1 estimate ([1]; Model 1): 16.8 CV%
- Inter-individual variability V2 estimate ([1]; Model 1): 15.1 CV%
- Inter-individual variability V3 estimate ([1]; Model 1): 15.0 CV%
- Inter-occasion variability CLR estimate ([1]; Model 1): 3.69 CV%
- Inter-occasion variability Q2 estimate ([1]; Model 1): 23.7 CV%
- Inter-occasion variability V1 estimate ([1]; Model 1): 4.82 CV%
- Q1 estimate [1, 3]: 0.219 L/h
- Q2 estimate [1, 3]: 5.53 L/h
- V1 estimate [1, 3]: 8.91 L
- V2 estimate [1, 3]: 1.54 L
- V3 estimate [1, 3]: 4.30 L
- Inter-individual variability CLR estimate ([1]; Model 2): 14.2 CV%
- Inter-individual variability V1 estimate ([1]; Model 2): 17.2 CV%
- Inter-individual variability V2 estimate ([1]; Model 2): 13.8 CV%
- Inter-individual variability V3 estimate ([1]; Model 2): 13.5 CV%
- Inter-occasion variability CLR estimate ([1]; Model 2): 2.33 CV%
- Inter-occasion variability Q2 estimate ([1]; Model 2): 17.1 CV%
- Inter-occasion variability V1 estimate ([1]; Model 2): 3.87 CV%
- Q1 estimate [1, 4]: 0.227 L/h
- Q2 estimate [1, 4]: 5.38 L/h
- V1 estimate [1, 4]: 8.90 L
- V2 estimate [1, 4]: 1.57 L
- V3 estimate [1, 4]: 4.30 L
- Interindividual variability CLR, point estimate ([1]; final model, entire dataset): 14.0 CV%
- Interindividual variability V1, point estimate ([1]; final model, entire dataset): 16.6 CV%
- Interindividual variability V2, point estimate ([1]; final model, entire dataset): 14.0 CV%
- Interindividual variability V3, point estimate ([1]; final model, entire dataset): 15.5 CV%
- Interoccasion variability CLR, point estimate ([1]; final model, entire dataset): 2.51 CV%
- Interoccasion variability Q2, point estimate ([1]; final model, entire dataset): 29.2 CV%
- Interoccasion variability V1, point estimate ([1]; final model, entire dataset): 6.23 CV%
- Q1 point estimate [1, 5]: 0.221 L/h
- Q2 point estimate [1, 5]: 5.84 L/h
- V1 point estimate [1, 5]: 9.06 L
- V2 point estimate [1, 5]: 1.56 L
- V3 point estimate [1, 5]: 4.34 L
- Interindividual variability CLR, bootstrap median (95% CI) [1, 6]: 13.5 (5.05–20.1) CV%
- Interindividual variability V1, bootstrap median (95% CI) [1, 6]: 15.5 (6.88–23.1) CV%
- Interindividual variability V2, bootstrap median (95% CI) [1, 6]: 13.4 (7.81–20.7) CV%
- Interindividual variability V3, bootstrap median (95% CI) [1, 6]: 13.7 (5.57–19.2) CV%
- Interoccasion variability CLR, bootstrap median (95% CI) [1, 6]: 2.44 (0.900–3.87) CV%
- Interoccasion variability Q2, bootstrap median (95% CI) [1, 6]: 28.7 (6.99–65.8) CV%
- Interoccasion variability V1, bootstrap median (95% CI) [1, 6]: 6.06 (1.55–10.2) CV%
- Q1 bootstrap median (95% CI) [1, 6]: 0.219 (0.164–0.313) L/h
- Q2 bootstrap median (95% CI) [1, 6]: 5.76 (4.11–8.23) L/h
- V1 bootstrap median (95% CI) [1, 6]: 9.06 (8.18–10.1) L
- V2 bootstrap median (95% CI) [1, 6]: 1.57 (1.36–1.87) L
- V3 bootstrap median (95% CI) [1, 6]: 4.34 (3.81–4.99) L
- CL renal ([1]; human, plasma and urine, intravenous, Model 1: excluding samples within 45 minutes after the test dose for the subject with delayed absorption, read-out: CLR estimate (converted)): 90.8 mL/min
- CL renal ([1]; human, plasma and urine, intravenous, Model 2: excluding all data from the subject with delayed absorption when receiving the test dose, read-out: CLR estimate (converted)): 91.5 mL/min
- CL renal ([1]; human, plasma and urine, intravenous, final model, entire dataset, n=12, read-out: CLR point estimate (converted)): 91.7 mL/min
- CL renal ([1]; human, plasma and urine, intravenous, final model, nonparametric bootstrap, read-out: CLR bootstrap median (95% CI) (converted)): 91.7 mL/min
- CL renal ([1]; human, plasma and urine, intravenous, final model, read-out: Individual empirical Bayesian estimates of CLR, median (range) (converted)): 87.5 mL/min
- Vd ([1]; human, plasma and urine, intravenous, final model, read-out: Individual empirical Bayesian estimates of volume of distribution (sum of V1, V2, and V3), median (range)): 15.1 L
- First-order absorption rate constant [1, 7]: 0.876 h⁻¹
- Relative bioavailability [1, 7]: 93.6%
SMILES: CC(=O)N(CC(O)CO)c1c(I)c(C(=O)NCC(O)CO)c(I)c(C(=O)NCC(O)CO)c1I (stereo not shown) [iohexol]
- Iohexol clearance under OCT2 and MATE inhibitors [2]: unaffected
